# Laboratory results as given in patent publication US20130053243A1, “PLANTS HAVING INCREASED TOLERANCE TO HERBICIDES” (BASF SE, priority 2010, published 2013).
# Tests used:
# Assay type in all cases: biochemical
# [1] = biological target: T1, Arabidopsis HPPD (Arabidopsis thaliana, UniProt P93836); test: HPPD activity assay (homogentisic acid by HPLC), wildtype enzyme; conditions: Table 11, calculated from IC50 with Cheng-Prusoff equation, read-out: dissociation constant Ki
# T1 construct: His6 (N); made in house; host or cells: E. coli BL21 (DE3)
# T1 sequence (P93836 1-445): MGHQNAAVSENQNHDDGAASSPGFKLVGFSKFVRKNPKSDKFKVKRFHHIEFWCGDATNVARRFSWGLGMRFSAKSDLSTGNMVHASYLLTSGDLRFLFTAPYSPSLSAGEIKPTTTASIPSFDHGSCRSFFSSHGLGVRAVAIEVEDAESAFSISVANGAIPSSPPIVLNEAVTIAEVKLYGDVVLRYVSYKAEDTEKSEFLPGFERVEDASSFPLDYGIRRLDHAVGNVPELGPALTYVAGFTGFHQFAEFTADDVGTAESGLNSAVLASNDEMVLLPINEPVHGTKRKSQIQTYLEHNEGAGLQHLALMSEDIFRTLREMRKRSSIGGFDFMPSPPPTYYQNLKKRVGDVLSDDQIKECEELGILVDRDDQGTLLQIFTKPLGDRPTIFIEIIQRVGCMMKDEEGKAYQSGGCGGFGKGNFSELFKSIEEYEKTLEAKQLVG
# Protocol: (§1) HPPD produces homogentisic acid and CO2 from 4-hydroxyphenylpyruvate (4-HPP) and O2. The activity assay for HPPD is based on the analysis of homogentisic acid by reversed phase HPLC.
# (§2) The assay mixture can contain 150 mM potassium phosphate buffer pH 7.0, 50 mM L-ascorbic acid, 1 μM FeSO4 and 7 μg of purified enzyme in a total volume of 1 ml.
# (§3) Inhibitors are dissolved in DMSO (dimethylsulfoxide) to a concentration of 20 mM or 0.5 mM, respectively. From this stock solution serial five-fold dilutions are prepared in DMSO, which are used in the assay. The respective inhibitor solution accounts for 1% of the assay volume. Thus, final inhibitor concentrations range from 200 μM to 2.5 nM or from 5 μM to 63 pM, respectively.
# (§4) After a preincubation of 30 min the reaction is started by adding 4-HPP to a final concentration of 0.1 mM. The reaction is allowed to proceed for 120 min at room temperature. The reaction is stopped by addition of 100 μl of 4.5 M phosphoric acid.
# The sample is extracted on an Oasis® HLB cartridge 3 cc/60 mg (Waters) that was preequilibrated with 63 mM phosphoric acid. L-ascorbic acid is washed out with 3 ml of 63 mM phosphoric acid. […]
# (§5) 10 μl of the eluate is analyzed by reversed phase HPLC on a Symmetry® C18 column (particle size 3.5 μm, dimensions 4.6×100 mm; Waters) using 5 mM H3PO4/15% ethanol (w/w) as an eluent.
# (§6) Homogentisic acid is detected electrochemically and quantified by measuring peak areas (Empower software; Waters).
# Activities are normalized by setting the uninhibited enzyme activity to 100%. IC50 values are calculated using non-linear regression. […]
# (§7) 5 μl of the cleared sample is analyzed on an Atlantis T3 column (particle size 3 μm, dimensions 3×50 mm; Waters) by isocratic elution using 90% 10 mM NaH2PO4 pH 2.2, 10% methanol (v/v).
# (§8) HGA is detected electrochemically at 750 mV (mode: DC; polarity: positive) and quantified by integrating peak areas (Empower software; Waters).
# Inhibitors are dissolved in DMSO (dimethylsulfoxide) to a concentration of 0.5 mM. […] IC50 values are calculated using non-linear regression. […]
# [2] = biological target: T2, Arabidopsis HPPD variant Q293H (Arabidopsis thaliana, UniProt P93836, Q293H); test: HPPD activity assay, mutant enzyme
# T2 construct: His6 (N); made in house; host or cells: E. coli BL21 (DE3)
# Protocol: as §1, §2, §3, §4
# (§9) The sample is extracted on an Oasis® HLB cartridge 3 cc/60 mg (Waters) that was preequilibrated with 63 mM phosphoric acid. L-ascorbic acid is washed out with 3 ml of 63 mM phosphoric acid. Homogentisate is eluted with 1 ml of a 1:1 mixture of 63 mM phosphoric acid and methanol (w/w).
# as §5, §6
# (§10) Activities are normalized by setting the uninhibited enzyme activity to 100%. IC50 values are calculated using non-linear regression.
# (§11) The assay mixture can contain 150 mM potassium phosphate buffer pH 7.0, 50 mM L-ascorbic acid, 100 μM Catalase (Sigma-Aldrich), 1 μM FeSO4 and 0.2 units of purified HPPD enzyme in a total volume of 505 μl. 1 unit is defined as the amount of enzyme that is required to produce 1 nmol of HGA per minute at 20° C.
# (§12) After a preincubation of 30 min the reaction is started by adding 4-HPP to a final concentration of 0.05 mM. The reaction is allowed to proceed for 45 min at room temperature. The reaction is stopped by the addition of 50 μl of 4.5 M phosphoric acid. The sample is filtered using a […] pore size PVDF filtration device.
# as §7, §8
# (§13) Inhibitors are dissolved in DMSO (dimethylsulfoxide) to a concentration of 0.5 mM. From this stock solution serial five-fold dilutions are prepared in DMSO, which are used in the assay. The respective inhibitor solution accounts for 1% of the assay volume. Thus, final inhibitor concentrations range from 5 μM to 320 pM, respectively. Activities are normalized by setting the uninhibited enzyme activity to 100%. IC50 values are calculated using non-linear regression.
# (§14) Purified, mutant HPPD enzymes are obtained by the methods described above. Dose response and kinetic measurements are carried out using the described HPPD activity assay. Apparent michaelis constants (Km) and maximal reaction velocities (Vmax) are calculated by non-linear regression with the software GraphPad Prism 5 (GraphPad Software, La Jolla, USA) using a substrate inhibition model. Apparent kcat values are calculated from Vmax assuming 100% purity of the enzyme preparation. Weighted means (by standard error) of Km and IC50 values are calculated from at least three independent experiments. The Cheng-Prusoff equation for competitive inhibition (Cheng, Y. C.; Prusoff, W. H. Biochem Pharmacol 1973, 22, 3099-3108) is used to calculate dissociation constants (Ki). Examples of the data obtained are depicted in Table 13.
# [3] = biological target: T3, Arabidopsis HPPD variant Q293N (Arabidopsis thaliana, UniProt P93836, Q293N); test: HPPD activity assay, mutant enzyme
# T3 construct: His6 (N); made in house; host or cells: E. coli BL21 (DE3)
# Protocol: as §1, §2, §3, §4, §9, §5, §6, §10, §11, §12, §7, §8, §13, §14
# T2 sequence (P93836 whole entry Q293H): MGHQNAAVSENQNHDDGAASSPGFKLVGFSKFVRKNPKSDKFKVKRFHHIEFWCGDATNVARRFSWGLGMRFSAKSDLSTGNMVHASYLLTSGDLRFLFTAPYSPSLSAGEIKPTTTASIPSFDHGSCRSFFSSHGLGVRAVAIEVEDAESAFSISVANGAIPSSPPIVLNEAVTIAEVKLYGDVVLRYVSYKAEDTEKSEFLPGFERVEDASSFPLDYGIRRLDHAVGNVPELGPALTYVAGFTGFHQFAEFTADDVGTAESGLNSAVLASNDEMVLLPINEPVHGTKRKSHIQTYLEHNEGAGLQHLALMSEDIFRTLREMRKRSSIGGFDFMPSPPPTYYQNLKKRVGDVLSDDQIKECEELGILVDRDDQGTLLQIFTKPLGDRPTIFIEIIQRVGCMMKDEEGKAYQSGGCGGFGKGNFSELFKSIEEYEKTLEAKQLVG
# T3 sequence (P93836 whole entry Q293N): as the sequence (P93836 whole entry Q293H) above, with H293N counted along it
SMILES,Ki [1] [nM],Ki [2] [nM],Ki [3] [nM]
"CC1=NOC(c2c(Cl)ccc(C3=C(O)c4ncccc4N(CC(F)F)S3(=O)=O)c2Cl)C1 (stereo not drawn) [Inhibitor 1, 3-[2,4-dichloro-3-(3-methyl-4,5-dihydroisoxazol-5-yl)phenyl]-1-(2,2-difluoroethyl)-2,2-dioxo-pyrido[3,2-c]thiazin-4-ol]",3,23,41
"Cc1c(C(=O)c2cnn(C)c2O)ccc(S(C)(=O)=O)c1C1=NOCC1 [Topramezone, reference compound]",4,14,36
